This note sets out measurements from ChEMBL document CHEMBL1201862, “PubChem BioAssay data set” (2004).

Test in all cases: NCI anticancer screen, dose series, 48 h
The subject of experiment [1] is Malme-3M.
The subject of experiment [2] is U-251.
Experiment [3] has as its system MDA-MB-231.
Experiment [4] relates to SK-MEL-2.
Experiment [5] deals with A549.
In experiment [6] the test system is MOLT-4.
Experiment [7] has as its system MCF7.
In experiment [8] the test system is 786-0.
Experiment [9] deals with HOP-62.
Experiment [10] relates to KM12.
In experiment [11] the test system is NCI/ADR-RES.
The subject of experiment [12] is NCI-H23.
For experiment [13], the system named is RPMI-8226.
The test system of experiment [14] is OVCAR-5.
In experiment [15] the test system is HCT-15.
Experiment [16] relates to EKVX.
Experiment [17] relates to Hs-578T.
The subject of experiment [18] is NCI-H522.
Experiment [19] concerns BT-549.
Experiment [20] has as its system MDA-N.

SMILES strings stand for the structures.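 The compound was tested at five concentrations on cells cultured in 96-well plates, with a 48-hour exposure period. GI50 marks 50% less growth.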 The source made the active and inactive calls. Rule as the data show it: active = GI50 up to about 1.1 µM and inactive = higher.

As for `CN(C)c1ccc(C=c2c3ccccc3n3c2c2ccccc2[n+]3C)cc1`, the GI50 in experiment [1] was 0.392 µM (active); in [2], 0.196 µM (active); in experiment [3], 0.877 µM (active); in [4], 0.258 µM (active); in [5], 3.73 µM (inactive); in [6], 0.493 µM (active). For the same compound, the GI50 is 0.822 µM (active) in [7]; 0.301 µM (active) in [8]; 0.942 µM (active) in [9]; 1.01 µM (active) in [10]; 3.93 µM (inactive) in [11]; 1.01 µM (active) in [12]. The GI50 in [13] was 0.138 µM (active); in experiment [14] it was 3.02 µM (inactive); in experiment [15], 0.456 µM; in experiment [16], 2.65 µM (inactive); in experiment [17], 0.635 µM (active); in experiment [18], 0.174 µM (active). In addition, the GI50 in experiment [19] is 0.274 µM (active); in experiment [20] it was 0.526 µM (active).
Turning to `O=C1/C(=C/c2cccc([N+](=O)[O-])c2)N=C(c2ccccc2)N1c1nc2ccc(Sc3ccccc3)cc2[nH]1`, the GI50 in [1] was 63.1 µM (inactive); in [2], 37.3 µM (inactive); in [3], 93.1 µM (inactive); in experiment [4] it was 30.3 µM (inactive); in experiment [5], 55.2 µM (inactive); in experiment [6] it was 34.8 µM (inactive). Moreover, the GI50 in experiment [7] was 31.5 µM (inactive); in experiment [8], 60.1 µM (inactive); in [9] it was 83 µM (inactive); in [10] it was 31.8 µM (inactive); in [11], 29.3 µM (inactive); in [12], 46.6 µM (inactive). The GI50 in [13] was 33.3 µM (inactive); in [14] it was > 100 µM (inactive); in experiment [15], 35.6 µM; in experiment [16], 62.8 µM (inactive); in experiment [17] it was 35.5 µM (inactive); in [18], 32.9 µM (inactive). Moreover, the results for the GI50 in [19] and in [20] were 88.7 µM (inactive) and 14.9 µM (inactive), respectively.
`CCC(C)[C@@H](NC1=C(Cl)C(=O)c2c(O)ccc(O)c2C1=O)C(=O)OC` (stereo not given in full): the GI50 in experiment [1] was 1.8 µM (inactive); in experiment [2], 3.78 µM (inactive); in [3], 2.52 µM (inactive); in experiment [4] it was 4.2 µM (inactive); in experiment [5], 3.89 µM (inactive); in experiment [6], 1.47 µM (inactive). The GI50 was 3.61 µM (inactive) in experiment [7]; 2.43 µM (inactive) in [8]; 3.51 µM (inactive) in experiment [9]; 3.92 µM (inactive) in experiment [10]; 2.52 µM (inactive) in experiment [11]; 2.07 µM (inactive) in experiment [12]. Further, the GI50 in experiment [13] was 2.28 µM (inactive); in experiment [14], 5.12 µM (inactive); in experiment [15], 2.94 µM; in [16], 9.23 µM (inactive); in [17] it was > 10 µM (inactive); in experiment [18], 2.67 µM (inactive). The GI50 in experiment [19] was 3.43 µM (inactive); in [20], 3.56 µM (inactive).
Turning to `CO[C@H]1C=CO[C@@]2(C)Oc3c(C)c(O)c4c(O)c(c(CN5CCN(C)CC5)c(O)c4c3C2=O)NC(=O)/C(C)=C\C=C[C@H](C)[C@H](O)C(C)[C@@H](O)C(C)[C@H](OC(C)=O)[C@@H]1C` (stereo not given in full), the GI50 in experiment [1] was 40.6 µM (inactive); in [2], 32.7 µM (inactive); in experiment [3] it was 34.4 µM (inactive); in experiment [4] it was 41.8 µM (inactive); in [5], 39.7 µM (inactive); in [6] it was 5.87 µM (inactive). For the same compound, the GI50 is 11.1 µM (inactive) in [7]; 21.3 µM (inactive) in experiment [8]; 17.7 µM (inactive) in experiment [9]; 45.6 µM (inactive) in experiment [10]; > 100 µM (inactive) in experiment [11]; 14.6 µM (inactive) in experiment [12]. For the same compound, the GI50 in [13] was 4.62 µM (inactive); in experiment [14] it was > 100 µM (inactive); in experiment [15], 30.8 µM; in experiment [16], 68.5 µM (inactive); in experiment [17], > 100 µM (inactive); in [18], 18.3 µM (inactive). The GI50 is 45.9 µM (inactive) in experiment [19] and 44.3 µM (inactive) in [20].
Turning to `COC(OC)(c1ccccc1)C(Br)Br`, the GI50 in experiment [1] is 16.7 µM (inactive); in [2] it was > 100 µM (inactive); in experiment [3], 74.5 µM (inactive); in experiment [4], > 100 µM (inactive); in [5] it was > 100 µM (inactive); in experiment [6] it was 16.1 µM (inactive). Moreover, the GI50 in [7] was 39 µM (inactive); in experiment [8] it was 23.2 µM (inactive); in [9], > 100 µM (inactive); in experiment [10], > 100 µM (inactive); in experiment [11], 51.8 µM (inactive); in experiment [12], > 100 µM (inactive). Moreover, the GI50 in [13] is 36.5 µM (inactive); in experiment [14], > 100 µM (inactive); in [15], 17.1 µM; in experiment [16], > 100 µM (inactive); in experiment [17] it was 78 µM (inactive); in [18], 17.8 µM (inactive). For the same compound, the GI50 was > 100 µM (inactive) in experiment [19] and 31.7 µM (inactive) in experiment [20].
As for `C=C1CC(Cn2cc(C)c(=O)[nH]c2=O)(c2ccc(-c3ccccc3)cc2)OC1=O` (stereo not given), the GI50 in experiment [1] is 2.11 µM (inactive); in [2], 10.6 µM (inactive); in [3], 2.22 µM (inactive); in [4], 1.94 µM (inactive); in [5] it was 8.49 µM (inactive); in experiment [6], 0.964 µM (active). The GI50 in experiment [7] is 1.51 µM (inactive); in experiment [8] it was 0.817 µM (active); in [9] it was 13.1 µM (inactive); in [10] it was 2.31 µM (inactive); in experiment [11], 1.33 µM (inactive); in [12] it was 1.74 µM (inactive). Besides, the GI50 in experiment [13] was 0.385 µM (active); in experiment [14], 9.46 µM (inactive); in experiment [15], 1.69 µM; in experiment [16], 6.62 µM (inactive); in [17], 6.55 µM (inactive); in experiment [18], 0.841 µM (active). In addition, the GI50 was 1.46 µM (inactive) in experiment [19] and 1.33 µM (inactive) in experiment [20].
With `CCOC(=O)C1=C(O)C2C3CC4C2C(O)=C(C(=O)OCC)C2C1C3C42` (stereo not given), the GI50 in experiment [1], in experiment [2], in [3], in [4], in experiment [5] and in [6] was > 100 µM (inactive) in each case. Further, the GI50 in experiment [7] was > 100 µM (inactive); in experiment [8] it was > 100 µM (inactive); in [9], > 100 µM (inactive); in [10], > 100 µM (inactive); in [11] it was 18.7 µM (inactive); in experiment [12] it was > 100 µM (inactive). For the same compound, the GI50 in [13] was 84.5 µM (inactive); in experiment [14], > 100 µM (inactive); in experiment [15], more than 100 µM; in experiment [16], > 100 µM (inactive); in [17] it was > 100 µM (inactive); in experiment [18] it was > 100 µM (inactive). Besides, the GI50 in experiment [19] and in [20] was > 100 µM (inactive) in each case.
Turning to `NS(=O)(=O)c1ccc(NNc2c3ccccc3nc3c(C(=O)Nc4ccc(S(=O)(=O)Nc5ncccn5)cc4)cccc23)cc1`, the GI50 in experiment [1], in [2], in experiment [3], in experiment [4], in experiment [5] and in [6] was > 25 µM (inactive) each time. Besides, the GI50 in experiment [7], in experiment [8], in [9], in [10], in experiment [11] and in [12] was > 25 µM (inactive) throughout. Moreover, the GI50 in experiment [13] was > 25 µM (inactive); in experiment [14], > 25 µM (inactive); in experiment [15] it was more than 25 µM; in [16], > 25 µM (inactive); in [17], > 25 µM (inactive); in [18], > 25 µM (inactive). Besides, the GI50 in [19] and in experiment [20] was > 25 µM (inactive) in each case.
For `Brc1ccc2c([C@H]3CN[C@@H](c4c[nH]c5cc(Br)ccc45)CN3)c[nH]c2c1`, the GI50 in experiment [1] was 2.56 µM (inactive); in [2] it was 2 µM (inactive); in [3] it was 1.8 µM (inactive); in experiment [4], 5.07 µM (inactive); in experiment [5], 2.8 µM (inactive); in experiment [6], 2.29 µM (inactive). Also, the GI50 in [7] is 1.9 µM (inactive); in [8] it was 1.65 µM (inactive); in experiment [9], 11.6 µM (inactive); in [10], 1.7 µM (inactive); in [11], 4.9 µM (inactive); in [12] it was 2.54 µM (inactive). Moreover, the GI50 in experiment [13] was 2.48 µM (inactive); in experiment [14], 4.95 µM (inactive); in experiment [15], 3.83 µM; in experiment [16], 10.5 µM (inactive); in experiment [17] it was 7.62 µM (inactive); in [18], 1.57 µM (inactive). For the same compound, the GI50 was 12.3 µM (inactive) in experiment [19] and 1.66 µM (inactive) in experiment [20].
On to `Cn1c2c3ccc(Cl)cc3nc-2c(Cl)c2ccccc21`, for which the GI50 in [1] was 18.2 µM (inactive); in experiment [2] it was 10.9 µM (inactive); in [3], 23.7 µM (inactive); in experiment [4], 21.4 µM (inactive); in [5] it was 27.3 µM (inactive); in [6], 19 µM (inactive). Besides, the GI50 in [7] was 26.2 µM (inactive); in experiment [8], 15.5 µM (inactive); in [9], 16.4 µM (inactive); in experiment [10], 16.9 µM (inactive); in experiment [11], 24.8 µM (inactive); in [12], 13.4 µM (inactive). Besides, the GI50 is 4.31 µM (inactive) in [13]; 17.3 µM (inactive) in [14]; 14.7 µM in [15]; 22.9 µM (inactive) in experiment [16]; 40.6 µM (inactive) in experiment [17]; 17.9 µM (inactive) in experiment [18]. Also, the GI50 is 24.3 µM (inactive) in experiment [19] and 20.2 µM (inactive) in experiment [20].
